Assays:
[1] = system: MDA-MB-231 breast adenocarcinoma cells; conditions: MDA-MB-231 cells; for TRAIL sensitizing activity: compound 4 h, then TRAIL 20 h (Fig. 4)
[2] = target: BIR2 domain of XIAP (Homo sapiens, UniProt P98170); conditions: from Ki values
Sequence of BIR2 domain of XIAP (P98170 124-240 limits assumed): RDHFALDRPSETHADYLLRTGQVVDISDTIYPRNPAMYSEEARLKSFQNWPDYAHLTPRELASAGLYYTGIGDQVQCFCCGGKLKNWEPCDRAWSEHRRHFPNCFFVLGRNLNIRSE

| Molecule | TRAIL sensitizing activity [1] | selectivity for BIR2 vs. BIR3 [2] | LD50 of TRAIL ([1]; TRAIL alone) |
| --- | --- | --- | --- |
| CN[C@@H](C)C(=O)N[C@H](C(=O)N1CCC[C@H]1C(=O)NNc1ccccc1)C(C)C [Compound 9j] | slightly less potent | three-fold selective | – |
| TRAIL: apoptosis-inducing agent added to MDA-MB-231 cells at varying concentrations | – | – | could not be achieved |
| CN[C@@H](C)C(=O)N[C@H](C(=O)N1CCC[C@H]1C(=O)N[C@@H]1CCCc2ccccc21)C(C)C [Compound 9f] | strong TRAIL sensitizing activity | – | – |
